Measured values as given in patent publication US11802120B2, “Fused cyclic urea derivatives as CRHR2 antagonist” (RaQualia Pharma Inc., priority 2018, dated 2023).

molecular target: T1, human CRHR2-alpha (Homo sapiens, UniProt Q13324); test: cAMP functional assay for human CRHR2 (LANCE Ultra cAMP, TR-FRET); format: cell-based; conditions: CHO-K1 cells expressing human CRHR2-alpha, agonist human urocortin2 at EC80, cAMP; read-out: IC50 against CRHR2
T1 sequence (Q13324 1-411): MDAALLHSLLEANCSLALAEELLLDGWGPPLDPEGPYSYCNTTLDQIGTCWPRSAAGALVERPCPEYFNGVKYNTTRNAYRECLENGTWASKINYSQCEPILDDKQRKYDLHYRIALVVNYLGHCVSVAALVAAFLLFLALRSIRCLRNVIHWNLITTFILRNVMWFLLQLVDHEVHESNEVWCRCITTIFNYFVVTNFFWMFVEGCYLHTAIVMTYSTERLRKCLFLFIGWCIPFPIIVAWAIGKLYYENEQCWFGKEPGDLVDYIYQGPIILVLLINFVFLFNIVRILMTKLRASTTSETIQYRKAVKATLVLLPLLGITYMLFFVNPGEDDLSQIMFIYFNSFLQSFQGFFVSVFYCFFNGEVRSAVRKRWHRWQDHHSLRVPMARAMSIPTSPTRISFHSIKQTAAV
Summary of the method: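 Inhibition of agonist-driven cAMP was assessed in recombinant CHO-K1 cells at 25° C, using 30 min compound pretreatment and 30 min stimulation with EC80 human urocortin2 (CRHR2) or CRF (CRHR1). IC50 came from dose-response fitting.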

SMILES | IC50 [nM]
Cc1ncc(Cl)cc1C(=O)N[C@H]1CC[C@H](Cn2c(=O)n(-c3cnc4c(c3)CCN4)c3ccccc32)CC1 [Example 152, 5-chloro-N-((1r,4r)-4-((3-(2,3-dihydro-1H-pyrrolo[2,3-b]pyridin-5-yl)-2-oxo-2,3-dihydro-1H-benzo[d]imidazol-1-yl)methyl)cyclohexyl)-2-methylnicotinamide] | < 300
Cc1ncc(Cl)cc1C(=O)N[C@H]1CC[C@H](Cn2c(=O)n(-c3ccc4ncoc4c3)c3ccccc32)CC1 [Example 153, N-((1r,4r)-4-((3-(benzo[d]oxazol-6-yl)-2-oxo-2,3-dihydro-1H-benzo[d]imidazol-1-yl)methyl)cyclo-hexyl)-5-chloro-2-methylnicotinamide] | < 300
Cc1ncc(Cl)cc1C(=O)N[C@H]1CC[C@H](Cn2c(=O)n(-c3cnc4c(c3)CCN4C)c3ccccc32)CC1 [Example 154, 5-chloro-2-methyl-N-((1r,4r)-4-((3-(1-methyl-2,3-dihydro-1H-pyrrolo[2,3-b]pyridin-5-yl)-2-oxo-2,3-dihydro-1H-benzo[d]imidazol-1-yl)methyl)cyclohexyl)nicotinamide] | < 300
Cc1ncc(Cl)cc1C(=O)N[C@H]1CC[C@H](Cn2c(=O)n(-c3cnc4c(c3)OCCN4)c3ccccc32)CC1 [Example 159, 5-chloro-N-((1r,4r)-4-((3-(3,4-dihydro-2H-pyrido[3,2-b][1,4]oxazin-7-yl)-2-oxo-2,3-dihydro-1H-benzo[d]imidazol-1-yl)methyl)cyclohexyl)-2-methylnicotinamide] | < 300
Cc1ncc(Cl)cc1C(=O)N[C@H]1CC[C@H](Cn2c(=O)n(-c3cnc4c(c3)OCCN4C)c3ccccc32)CC1 [Example 160, 5-chloro-2-methyl-N-((1r,4r)-4-((3-(4-methyl-3,4-dihydro-2H-pyrido[3,2-b][1,4]oxazin-7-yl)-2-oxo-2,3-dihydro-1H-benzo [d]imidazol-1-yl)methyl)cyclo-hexyl)nicotinamide] | < 300
Cc1ncc(Cl)cc1C(=O)N[C@H]1CC[C@H](Cn2c(=O)n(-c3ccc(N4CC(N(C)C)C4)nc3)c3ccccc32)CC1 [Example 161, 5-chloro-N-((1r,4r)-4-((3-(6-(3-(dimethylamino)azetidin-1-yl)pyridin-3-yl)-2-oxo-2,3-dihydro-1H-benzo[d]imidazol-1-yl)methyl)cyclohexyl)-2-methylnicotinamide] | < 300
Cc1ncc(Cl)cc1C(=O)N[C@H]1CC[C@H](Cn2c(=O)n(-c3ccc(N4CCC4)nc3)c3ccccc32)CC1 [Example 162, N-((1r,4r)-4-((3-(6-(azetidin-1-yl)pyridin-3-yl)-2-oxo-2,3-dihydro-1H-benzo[d]imidazol-1-yl)methyl)cyclo-hexyl)-5-chloro-2-methyl-nicotinamide] | < 300
Cc1ncc(Cl)cc1C(=O)N[C@H]1CC[C@H](Cn2c(=O)n(-c3cnc4c(cnn4C)c3)c3ccccc32)CC1 [Example 163, 5-chloro-2-methyl-N-((1r,4r)-4-((3-(1-methyl-1H-pyrazolo [3,4-b]pyridin-5-yl)-2-oxo-2,3-dihydro-1H-benzo[d]imidazol-1-yl)methyl)cyclo-hexyl)nicotinamide] | < 300
Cc1ncc(Cl)cc1C(=O)N[C@H]1CC[C@H](Cn2c(=O)n(-c3ccc4c(c3)oc(=O)n4C)c3ccccc32)CC1 [Example 164, 5-chloro-2-methyl-N-((1r,4r)-4-((3-(3-methyl-2-oxo-2,3-dihydrobenzo[d]oxazol-6-yl)-2-oxo-2,3-dihydro-1H-benzo [d]imidazol-1-yl)methyl)cyclo-hexyl)nicotinamide] | < 300
CCn1nc2ccccc2c1C(=O)N[C@H]1CC[C@H](Cn2c(=O)n(-c3ccc(C(=O)NC)nc3)c3ccccc32)CC1 [Example 166, 2-ethyl-N-((1r,4r)-4-((3-(6-(methylcarbamoyl)pyridin-3-yl)-2-oxo-2,3-dihydro-1H-benzo [d]imidazol-1-yl)methyl)cyclo-hexyl)-2H-indazole-3-carboxamide] | < 300
Cc1ncc(Cl)cc1C(=O)N[C@H]1CC[C@H](Cn2c(=O)n(C3COc4ccccc4C3)c3ccccc32)CC1 (stereo partly shown) [Example 167, 5-chloro-N-((1r,4r)-4-((3-(chroman-3-yl)-2-oxo-2,3-dihydro-1H-benzo[d]imidazol-1-yl)methyl)cyclo-hexyl)-2-methylnicotinamide] | < 300
Cc1ncc(Cl)cc1C(=O)N[C@H]1CC[C@H](Cn2c(=O)n(-c3ccc4[nH]nc(C)c4c3)c3ccccc32)CC1 [Example 170, 5-chloro-2-methyl-N-((1r,4r)-4-((3-(3-methyl-1H-indazol-5-yl)-2-oxo-2,3-dihydro-1H-benzo[d]imidazol-1-yl)methyl)cyclohexyl)nicotinamide] | < 300
Cc1ncc(Cl)cc1C(=O)N[C@H]1CC[C@H](Cn2c(=O)n(-c3ccc4c(C)noc4c3)c3ccccc32)CC1 [Example 171, 5-chloro-2-methyl-N-((1r,4r)-4-((3-(3-methylbenzo[d]isoxazol-6-yl)-2-oxo-2,3-dihydro-1H-benzo[d]imidazol-1-yl)methyl)cyclo-hexyl)nicotinamide] | < 300

Results, then the molecule that gave them:

IC50 [nM] | SMILES
< 300 | Cc1ncc(Cl)cc1C(=O)N[C@H]1CC[C@H](Cn2c(=O)n(-c3ccc(C(=O)NC4CC4)nc3)c3ccccc32)CC1 [Example 151, 5-(3-(((1r,4r)-4-(5-chloro-2-methylnicotinamido)cyclo-hexyl)methyl)-2-oxo-2,3-dihydro-1H-benzo[d]imidazol-1-yl)-N-cyclopropyl-picolinamide]
< 300 | CC(=O)N1CCc2cc(-n3c(=O)n(C[C@H]4CC[C@H](NC(=O)c5cc(Cl)cnc5C)CC4)c4ccccc43)cnc21 [Example 155, N-((1r,4r)-4-((3-(1-acetyl-2,3-dihydro-1H-pyrrolo[2,3-b]pyridin-5-yl)-2-oxo-2,3-dihydro-1H-benzo[d]imidazol-1-yl)methyl)cyclohexyl)-5-chloro-2-methylnicotinamide]
< 300 | Cc1ncc(Cl)cc1C(=O)N[C@H]1CC[C@H](Cn2c(=O)n(-c3cnc4cc[nH]c4c3)c3ccccc32)CC1 [Example 158, 5-chloro-2-methyl-N-((1r,4r)-4-((2-oxo-3-(1H-pyrrolo[3,2-b]pyridin-6-yl)-2,3-dihydro-1H-benzo[d]imidazol-1-yl)methyl)cyclohexyl)nicotinamide]
< 300 | Cc1ncc(Cl)cc1C(=O)N[C@H]1CC[C@H](Cn2c(=O)n(-c3ccc4nccnc4c3)c3ccccc32)CC1 [Example 165, 5-chloro-2-methyl-N-((1r,4r)-4-((2-oxo-3-(quinoxalin-6-yl)-2,3-dihydro-1H-benzo[d]imidazol-1-yl)methyl)cyclo-hexyl)nicotinamide]
< 300 | Cc1ncc(Cl)cc1C(=O)N[C@H]1CC[C@H](Cn2c(=O)n(-c3ccc4c(c3)nc(C)n4C)c3ccccc32)CC1 [Example 168, 5-chloro-N-((1r,4r)-4-((1′,2′-dimethyl-2-oxo-1′H-[1,5′-bibenzo[d]imidazol]-3(2H)-yl)methyl)cyclohexyl)-2-methylnicotinamide]
< 300 | Cc1ncc(Cl)cc1C(=O)N[C@H]1CC[C@H](Cn2c(=O)n(-c3ccc4c(c3)n(C)c(=O)n4C)c3ccccc32)CC1 [Example 169, 5-chloro-N-((1r,4r)-4-((1′,3′-dimethyl-2,2′-dioxo-2′,3′-dihydro-1′H-[1,5′-bibenzo [d]imidazol]-3(2H)-yl)methyl)cyclohexyl)-2-methylnicotinamide]
